{"source": "patent US8293726B2", "about": "“Treatment of cancer and other diseases” (Vianova Labs, Inc., priority 2005, dated 2012)", "key": {"[1]": {"system": "human tumor cell line: ductal carcinoma breast", "experiment": "Human tumor cell lines in immunocompromised mice (intraperitoneal, ascitis): breast", "type": "in vivo", "settings": "Breast CA; treated mice (4, 2 and 0.8 mg/kg/day orally for 10 days)", "method": "(§1) Immunocompromised mice were used for this experiment. Mice were inbred in a sterile environment and fed ad libitum. Four groups of 40 mice, weighing approximately 20 g each (range: 17-25 g), were used for each tumor type. The human tumor cell lines used were the following: large B-cell lymphoma; squamous-cell carcinoma of the lung; ductal carcinoma breast; and adenocarcinoma of the lung. A suspension of tumor cells was injected in the peritoneum of immunocompromised mice. Following this, mice were examined and weighed daily. After 6-8 days, we observed the development of abdominal carcinomatosis and […]. At day 18, we observed the development of an abundant […], which increased the weight of the mice by approximately 20 g. At that time, mice were divided into four groups of 10. […] Assessment of tumor cell concentration in the […] abdominal metastases were measured on day 18 and every 2 days thereafter. In all mice, prior to treatment, we observed an increase in LDH ESR (>100) and a decrease in the hematocrit. Control (untreated) mice all died between day 21 and day 25 in all tumor types. […] Complete response: Weight (and ascetic) loss and the disappearance of all abdominal metastatic nodules and tumor cells. Partial response: Weight (and ascitic) loss and at least 25% decrease of tumor cell in the […] least 25% decrease in measured abdominal metastatic nodules. […] Progressive disease: When we observed an increase in […] or tumor volume or death of the animal."}, "[2]": {"system": "experimentally induced large B-cell lymphoma", "experiment": "Therapeutic efficacy in mice with experimentally induced large B-cell lymphoma (blood tests, LDH, body weight, autopsy)", "type": "in vivo", "settings": "second treated group; M (arithmetic mean of 3 animals)"}, "[3]": {"system": "metastatic renal cell carcinoma (stage IV)", "experiment": "Patient case: metastatic renal cell carcinoma", "type": "in vivo, human", "settings": "80 mg/day"}, "[4]": {"system": "human tumor cell lines", "experiment": "Human tumor cell lines in immunocompromised mice, general observations over all tumor types", "type": "in vivo", "method": "Immunocompromised mice were used for this experiment. Mice were inbred in a sterile environment and fed ad libitum. Four groups of 40 mice, weighing approximately 20 g each (range: 17-25 g), were used for each tumor type. The human tumor cell lines used were the following: large B-cell lymphoma; squamous-cell carcinoma of the lung; ductal carcinoma breast; and adenocarcinoma of the lung. A suspension of tumor cells was injected in the peritoneum of immunocompromised mice. Following this, mice were examined and weighed daily. After 6-8 days, we observed the development of abdominal carcinomatosis and […]. At day 18, we observed the development of an abundant […], which increased the weight of the mice by approximately 20 g. At that time, mice were divided into four groups of 10. […] Assessment of tumor cell concentration in the […] abdominal metastases were measured on day 18 and every 2 days thereafter. In all mice, prior to treatment, we observed an increase in LDH ESR (>100) and a decrease in the hematocrit. Control (untreated) mice all died between day 21 and day 25 in all tumor types."}, "[5]": {"system": "hormone resistant metastatic prostate cancer", "experiment": "Patient case: hormone resistant metastatic prostate cancer, PSA", "type": "in vivo, human", "text": "A patient presented with hormone resistant metastatic prostate cancer. They had previously been treated with three courses of chemotherapy (Navelbine+Taxotere, but their PSA was still increasing."}, "[6]": {"system": "human tumor cell line: squamous-cell carcinoma of the lung", "experiment": "Human tumor cell lines in immunocompromised mice (intraperitoneal, ascitis): squamous lung", "type": "in vivo", "settings": "treated mice (4, 2 and 0.8 mg/kg/day orally for 10 days)", "method": "as §1"}, "[7]": {"system": "lung large-cell adenocarcinoma metastatic to liver", "experiment": "Patient case: lung large-cell adenocarcinoma metastatic to liver", "type": "in vivo, human", "set-up": "LDH: unit not given beside the values", "text": "A patient was diagnosed with a lung large-cell adenocarcinoma metastatic to liver. They received chemotherapy with no success. […] They also had frequent hemoptysis and elevated LDH, GGT, and bilirubin. The course of the patient's biologic parameters during treatment are depicted in Table 7."}}, "data": [{"molecule": "CC[C@H](CC[C@@H](C)[C@H]1CC[C@H]2[C@@H]3C[C@H](O)[C@@]4(O)C[C@@H](O)CC[C@]4(C)[C@H]3CC[C@]12C)C(C)C", "note": "[24-ethyl-cholestane-3β,5α,6α-triol]", "values": [{"measurement": "Complete Remission", "setting": "[1]", "value": 60, "unit": "%"}, {"measurement": "Partial Remission", "setting": "[1]", "value": 20, "unit": "%"}, {"measurement": "Progressive Disease", "setting": "[1]", "value": 0, "unit": "%"}, {"measurement": "Stable Disease", "setting": "[1]", "value": 20, "unit": "%"}, {"measurement": "Symptomatic Response", "setting": "[1]", "value": 100, "unit": "%"}, {"measurement": "neutrophiles/lymphocytes", "setting": "[2]", "value": 0.3024}, {"measurement": "chest CT scan, nodule in the right lower lobe", "setting": "[3]; eight months later", "value": 1, "unit": "mm"}, {"measurement": "chest CT scan", "setting": "[3]; one year after commencing therapy", "value": "normal"}, {"measurement": "chest CT scan, left lung metastasis", "setting": "[3]; six weeks after start, 1 cm deposit in both lungs before", "value": "disappearance of the left lung metastasis"}, {"measurement": "survival without recurrence", "setting": "[4]; mice that exhibited a complete response", "value": "three month survival without recurrence"}, {"measurement": "general condition", "setting": "[4]; most of the treated mice", "value": "improvement in the general condition"}, {"measurement": "hematological abnormalities", "setting": "[4]; most of the treated mice", "value": "normalization of hematological abnormalities"}, {"measurement": "time to ascitic regression (rapid response to therapy)", "setting": "[4]; most of the treated mice", "value": "1 to 2", "unit": "days"}, {"measurement": "tumor cells", "setting": "[4]; most of the treated mice, associated with an important tumor lysis", "value": "total clearance of tumor cells"}, {"measurement": "PSA", "setting": "[5]; Day 13, 70 mg/day, Day 0 prior to treatment 1958 (nl < 4)", "value": 1590}, {"measurement": "PSA", "setting": "[5]; Day 15, 70 mg/day", "value": 1142}, {"measurement": "PSA", "setting": "[5]; Day 67, 70 mg/day", "value": 802}, {"measurement": "PSA", "setting": "[5]; Day 110, 70 mg/day", "value": 772}, {"measurement": "Complete Remission", "setting": "[6]", "value": 50, "unit": "%"}, {"measurement": "Partial Remission", "setting": "[6]", "value": 30, "unit": "%"}, {"measurement": "Progressive Disease", "setting": "[6]", "value": 0, "unit": "%"}, {"measurement": "Stable Disease", "setting": "[6]", "value": 20, "unit": "%"}, {"measurement": "Symptomatic Response", "setting": "[6]", "value": 100, "unit": "%"}, {"measurement": "LDH", "setting": "[7]; Day 11, 70 mg/day, Day 0 prior to treatment 2560 (nl < 480)", "value": 2264}, {"measurement": "LDH", "setting": "[7]; Day 30, 70 mg/day", "value": 283}, {"measurement": "LDH", "setting": "[7]; Day 63, 70 mg/day", "value": 118}, {"measurement": "Total Bilirubin", "setting": "[7]; Day 63, 70 mg/day, Day 0 prior to treatment 1.9 (nl < 1)", "value": 0.42}, {"measurement": "LDH", "setting": "[7]; Day 85, 70 mg/day", "value": 230}, {"measurement": "Total Bilirubin", "setting": "[7]; Day 85, 70 mg/day", "value": 0.37}, {"measurement": "GGT", "setting": "[7]; during treatment, 70 mg/day", "value": 31}, {"measurement": "CT scans, masses in the lungs and liver", "setting": "[7]; more than a year after commencement of therapy", "value": "decrease in number and size of previous masses"}]}]}
